Data reported in US4558066A, “Treatment and prevention of ocular hypertension” (priority 1984, dated 1985).
Structures can show the parent of a compound that is named as a salt. Each block holds one compound with its values, some of them ahead of it.

Columns and labels:
intraocular pressure [1] = experiment: Intraocular pressure in anesthetized dogs after ocular administration; type: in vivo, mongrel dogs; conditions: anesthetized dog
Method: (§1) In the present studies, the cardiovascular and intraocular pressure effects of Timoptic (Timolol) a Merck β-blocker marketed for treatment of glaucoma, and ±2-[(3,4-methylenedioxy)phenethyl]-5-[(3-carboxamido-4-hydroxy)-α-hydroxybenzyl]pyrrolidine were evaluated in anesthetized dogs to determine if the compounds exert systemic effects after ocular administration.
(§2) Mongrel dogs were anesthetized with sodium pentobarbital (36 mg/kg, i.v.). The trachea was intubated and the dog respired with room air if necessary (20 cc/kg, 16x/min). A femoral vein was cannulated for injection of drugs and a femoral artery for measurement of systolic blood pressure. Heart rate was recorded by a cardiotachometer triggered by the R-wave of a limb lead II ECG. Intraocular pressure measurements were made with a Digilab model 30-D Pneuma-Tonometer.
(§3) Timolol and ±2-[(3,4-methylenedioxy)phenethyl]-5-[(3-carboxamido-4-hydroxy)-α-hydroxybenzyl]pyrrolidine were dissolved in distilled water. Isoproterenol and norepinephrine were dissolved in normal saline.
(§4) Isoproterenol was administered i.v. at half-log interval doses from 0.0158 μg/kg to 0.5 μg/kg.

eye = test system: eye; parameters: species or system mongrel dogs; conditions: dog, in vivo
isoproterenol responses = test system: isoproterenol responses; parameters: species or system mongrel dogs; conditions: dog, in vivo
Method: as §1, §2, §3, §4

norepinephrine responses = test system: norepinephrine responses; parameters: species or system mongrel dogs; conditions: dog, in vivo
Method: as §1, §2, §3, §4

[2] = parameters: species or system mongrel dogs; conditions: dog, in vivo
Method: as §1, §2, §3, §4

intraocular pressure [3] = experiment: Reduction of intraocular pressure in rabbits (pneuma-tonometer); type: in vivo, normal albino white New Zealand rabbits; conditions: rabbit
Method: Two groups of normal albino white New Zealand rabbits were used for this study.
Experimental group: 8 animals
At time 0, intraocular pressure of both eyes of each animal in control and experimental groups was determined.
All animals received the treatment either with saline (control group) or the tested compound (experimental group) immediately after 0 hour intraocular pressure reading. Control group received 50 μl of vehicle in both eyes. Experimental animals received 50 μl of vehicle in the left eyes and 50 μl of 1% solution of tested compound in the right eyes.
Intraocular pressure was measured at 30 minutes, 1, 2, and 4 hours.
The effects of tested drug on intraocular pressure of the rabbit was determined using a Digilab Model 30D pneuma-tonometer. Initial IOP readings were obtained in all animals after the administration of 50 μl of 0.5% Opthaine (proparacaine hydrochloride). A group of 4 rabbits served as controls and were treated with 50 μl of saline in both eyes. Eight additional rabbits received 50 μl of test drug in the right eye, and 50 μl of drug vehicle was administered in the contralateral left eye. IOP readings were made 30 minutes, 1 hours, 2 hours, and 4 hours after drug administration.
This procedure permitted the comparison of drug treated eye with the contralateral vehicle treated eye, and also with saline treated eye. For purposes of statistical analysis comparisons were made between the drug treated IOP values and vehicle treated contralateral eyes and also the saline treated IOP values.

[4] = cited from earlier work
[5] = topical; PDR; cited from earlier work
[6] = administered to the eye at 0.5, 1 and 2%

- Dose relation of inhibition of isoproterenol responses (isoproterenol responses): not dose related
- Inhibition of isoproterenol responses (isoproterenol responses): some inhibition
- Dose relation of inhibition of norepinephrine responses (norepinephrine responses): not dose related
- Inhibition of norepinephrine responses (norepinephrine responses): some inhibition
- Systemic effect (conclusion) [2]: modest, if any systemic effect
SMILES: NC(=O)c1cc(C(O)C2CCC(CCc3ccc4c(c3)OCO4)N2)ccc1O (racemic) [±2-[(3,4-methylenedioxy)phenethyl]-5-[(3-carboxamido-4-hydroxy)-α-hydroxybenzyl]pyrrolidine]
- Decrease of IOP relative to Timolol (intraocular pressure [1]; [6]): to a lesser extent than Timolol
- Effect on intraocular pressure (intraocular pressure [1]; [6]): decreased IOP
- Effect on intraocular pressure (conclusion) (intraocular pressure [1]; at the doses tested): lowered intraocular pressure
- Eye irritation (eye): no irritation to the eye
- Baseline blood pressure compared with control dogs [2]: differed little from control dogs
- Baseline heart rate compared with control dogs [2]: differed little from control dogs
- Intraocular pressure, Experimental O.D. (right, treated eye) (intraocular pressure [3]; 0 time reading before dosing of 50 μl of 1% solution (baseline), control O.D. 18.8, contralateral vehicle eye 18): 17.6 mmHg
- Effect on intraocular pressure in right (treated) eyes (intraocular pressure [3]; 1% solution): decreased significantly intraocular pressure
- Intraocular pressure, Experimental O.D. (right, treated eye) (intraocular pressure [3]; 50 μl of 1% solution, 30 min, control O.D. 18.3, contralateral vehicle eye 18.1): 18.9 mmHg
- Intraocular pressure, Experimental O.D. (right, treated eye) (intraocular pressure [3]; 50 μl of 1% solution, 1 hour, control O.D. 19.5, contralateral vehicle eye 19.8): 17.1 mmHg
- Intraocular pressure, Experimental O.D. (right, treated eye) (intraocular pressure [3]; 50 μl of 1% solution, 2 hours, control O.D. 19.8, contralateral vehicle eye 17.3): 14.4 mmHg
- Intraocular pressure, Experimental O.D. (right, treated eye) (intraocular pressure [3]; 50 μl of 1% solution, 4 hours, control O.D. 19.8, contralateral vehicle eye 18.8): 15.5 mmHg

- Inhibition of i.v. (systemic) isoproterenol challenges (isoproterenol responses): markedly inhibited
SMILES: CC(C)(C)NC[C@H](O)COc1nsnc1N1CCOCC1 [Timolol]
- Effect on intraocular pressure (intraocular pressure [1]; administered to the eye at 0.5%): significant decreases in intraocular pressure
- Effect on cardiac failure ([4]; congestive heart failure patients, ocular application): intensify cardiac failure in congestive heart failure patients
- Systemic absorption after ocular application ([4]; human, in vivo): absorbed systemically after ocular application
- Effect on bronchospasm ([4]; patients suffering from brochospastic disorders, ocular application): brochospasm in patients suffering from brochospastic disorders
- Systemic absorption following ocular administration (indicated by inhibition of isoproterenol challenges) (isoproterenol responses): readily absorbed systemically following ocular administration
- Effect on baseline blood pressure [2]: marked decreases
- Effect on baseline heart rate [2]: marked decreases
- Time post-dose to nadir of blood pressure [2]: ≤ 90 min
- Time post-dose to nadir of heart rate [2]: ≤ 90 min

SMILES: CC(C)(C)NC[C@H](O)COc1nsnc1N1CCOCC1 [timolol maleate]
- Systemic side effects when applied topically [5]: can cause bronchospastic disease, bradyarrhythmia, cardiogenic shock, cardiac failure, etc.
